Reference: US9738932B2, “Biomarkers for cardiovascular side-effects induced by cox-2 inhibitory compounds” (FIRALIS SAS, priority 2005, dated 2017)

System: mRNA expression in cardiovascular tissues
Assay: Affymetrix GeneChip mRNA expression profiling of monkey tissues (iliac vein, pulmonary vein, aorta, carotid artery, heart) after two-week oral-gavage treatment
Details: iliac vein
[1] = group average (Vioxx without A60055)
[2] = group avg, Vioxx without A60055

For `CS(=O)(=O)c1ccc(C2=C(c3ccccc3)C(=O)OC2)cc1` [Vioxx®, rofecoxib], which “BCL6 (215990_s_at) mRNA expression, Avg fold changes vs control” value [1] is on record?
Its value is 1.0 fold.

What about the “BTN2A2 (205298_s_at) mRNA expression, Avg fold changes vs control” value [1] of the same molecule?
Its value is 1.1 fold.

And the “CCR1 (205098_at) mRNA expression, Avg fold changes vs control” value [1]?
The value was 1.1 fold.

What about the “CD2 (205831_at) mRNA expression, Avg fold changes vs control” value [1] of the same molecule?
Its value is 1.1 fold.

What about the “CD48 (204118_at) mRNA expression, Avg fold changes vs control” value [1] of the same molecule?
The value was 1.1 fold.

What about the “CD53 (203416_at) mRNA expression, Avg fold changes vs control” value [1] of the same molecule?
The value was 1.2 fold.

And the “CDC2 (210559_s_at) mRNA expression, Avg fold changes vs control” value [1]?
The value was 1.0 fold.

What about the “CYBB (203922_s_at) mRNA expression, Avg fold changes vs control” value [1] of the same molecule?
Its value is 1.2 fold.

What about the “EMP3 (203729_at) mRNA expression, Avg fold changes vs control” value [1] of the same molecule?
The value was 0.7 fold.

What about the “FCER1G (204232_at) mRNA expression, Avg fold changes vs control” value [1] of the same molecule?
Its value is 0.9 fold.

And the “FCGR2A (203561_at) mRNA expression, Avg fold changes vs control” value [1]?
The value was 1.1 fold.

What about the “FCGRT (218831_s_at) mRNA expression, Avg fold changes vs control” value [1] of the same molecule?
The value was 1.0 fold.

What about the “FKBP11 (219117_s_at) mRNA expression, Avg fold changes vs control” value [1] of the same molecule?
Its value is 0.7 fold.

And the “FKBP11 (219118_at) mRNA expression, Avg fold changes vs control” value [1]?
The value was 0.6 fold.

And the “GP6 (220336_s_at) mRNA expression, Avg fold changes vs control” value [1]?
Its value is 1.2 fold.

What about the “HCLS1 (202957_at) mRNA expression, Avg fold changes vs control” value [1] of the same molecule?
The value was 1.2 fold.

And the “HEM1 (209734_at) mRNA expression, Avg fold changes vs control” value [1]?
The value was 1.2 fold.

And the “HLA-A (210514_x_at) mRNA expression, Avg fold changes vs control” value [1]?
Its value is 1.2 fold.

And the “HLA-A (213932_x_at) mRNA expression, Avg fold changes vs control” value [1]?
The value was 1.2 fold.

What about the “HLA-C (211799_x_at) mRNA expression, Avg fold changes vs control” value [1] of the same molecule?
The value was 1.0 fold.

And the “HLA-E (200904_at) mRNA expression, Avg fold changes vs control” value [1]?
Its value is 1.1 fold.

And the “HLA-F (221978_at) mRNA expression, Avg fold changes vs control” value [1]?
The value was 1.3 fold.

What about the “ICAM1 (202637_s_at) mRNA expression, Avg fold changes vs control” value [1] of the same molecule?
Its value is 0.8 fold.

And the “IL13RA1 (210904_s_at) mRNA expression, Avg fold changes vs control” value [1]?
Its value is 1.1 fold.

And the “PIK3CD (203879_at) mRNA expression, Avg fold changes vs control” value [1]?
Its value is 1.1 fold.

And the “PRKCBP1 (209048_s_at) mRNA expression, Avg fold changes vs control” value [1]?
The value was 1.3 fold.

What about the “PRKCBP1 (209049_s_at) mRNA expression, Avg fold changes vs control” value [1] of the same molecule?
Its value is 1.0 fold.

And the “PTPN7 (204852_s_at) mRNA expression, Avg fold changes vs control” value [1]?
Its value is 1.4 fold.

What about the “SIGIRR (52940_at) mRNA expression, Avg fold changes vs control” value [1] of the same molecule?
The value was 1.1 fold.

And the “STAT1 (200887_s_at) mRNA expression, Avg fold changes vs control” value [1]?
Its value is 1.2 fold.

And the “STAT1 (AFFX-HUMISGF3A/M97935_3_at) mRNA expression, Avg fold changes vs control” value [1]?
The value was 1.1 fold.

What about the “STAT3 (208992_s_at) mRNA expression, Avg fold changes vs control” value [1] of the same molecule?
The value was 1.0 fold.

What about the “TCIRG1 (204158_s_at) mRNA expression, Avg fold changes vs control” value [1] of the same molecule?
Its value is 1.0 fold.

What about the “THY1 (213869_x_at) mRNA expression, Avg fold changes vs control” value [1] of the same molecule?
Its value is 0.8 fold.

And the “TMPO (209753_s_at) mRNA expression, Avg fold changes vs control” value [1]?
Its value is 0.8 fold.

And the “TMSB10 (217733_s_at) mRNA expression, Avg fold changes vs control” value [1]?
The value was 1.1 fold.

What about the “TNFRSF21 (218856_at) mRNA expression, Avg fold changes vs control” value [1] of the same molecule?
The value was 1.2 fold.

What about the “TRB@ (210915_x_at) mRNA expression, Avg fold changes vs control” value [1] of the same molecule?
The value was 1.3 fold.

What about the “TRB@ (213193_x_at) mRNA expression, Avg fold changes vs control” value [1] of the same molecule?
Its value is 1.2 fold.

What about the “209813_x_at avg fold change vs control” value [2] of the same molecule?
Its value is 0.4 fold.

What about the “AIF1 (209901_x_at) avg fold change vs control” value [2] of the same molecule?
The value was 0.3 fold.

What about the “AIF1 (213095_x_at) avg fold change vs control” value [2] of the same molecule?
The value was 0.6 fold.

What about the “B2M (201891_s_at) avg fold change vs control” value [2] of the same molecule?
The value was 1.4 fold.

What about the “BCL3 (204908_s_at) avg fold change vs control” value [2] of the same molecule?
The value was 0.7 fold.

What about the “BTN3A1 (207485_x_at) avg fold change vs control” value [2] of the same molecule?
The value was 2.0 fold.

And the “BTN3A3 (38241_at) avg fold change vs control” value [2]?
Its value is 14 fold.

What about the “BTN3A3 (204820_s_at) avg fold change vs control” value [2] of the same molecule?
The value was 1.6 fold.

And the “BTN3A3 (204821_at) avg fold change vs control” value [2]?
Its value is 1.7 fold.

What about the “C1QA (218232_at) avg fold change vs control” value [2] of the same molecule?
The value was 0.9 fold.

What about the “C1QB (202953_at) avg fold change vs control” value [2] of the same molecule?
The value was 1.0 fold.

And the “C1R (212067_s_at) avg fold change vs control” value [2]?
The value was 0.9 fold.

And the “C1S (208747_s_at) avg fold change vs control” value [2]?
The value was 1.3 fold.

And the “C2 (203052_at) avg fold change vs control” value [2]?
The value was 0.9 fold.

What about the “C4A (208451_s_at) avg fold change vs control” value [2] of the same molecule?
Its value is 1.1 fold.

And the “CASP1 (209970_x_at) avg fold change vs control” value [2]?
The value was 1.1 fold.

And the “CASP1 (211367_s_at) avg fold change vs control” value [2]?
The value was 1.4 fold.

And the “CCL2 (216598_s_at) avg fold change vs control” value [2]?
Its value is 1.0 fold.

And the “CCL3 (205114_s_at) avg fold change vs control” value [2]?
Its value is 1.4 fold.

What about the “CCL5 (1405_i_at) avg fold change vs control” value [2] of the same molecule?
The value was 0.5 fold.

What about the “CCL8 (214038_at) avg fold change vs control” value [2] of the same molecule?
The value was 1.8 fold.

And the “CCL18 (209924_at) avg fold change vs control” value [2]?
Its value is 0.7 fold.

What about the “CCL19 (210072_at) avg fold change vs control” value [2] of the same molecule?
The value was 1.2 fold.

What about the “CCNB2 (202705_at) avg fold change vs control” value [2] of the same molecule?
The value was 1.4 fold.

What about the “CD3D (213539_at) avg fold change vs control” value [2] of the same molecule?
Its value is 2.0 fold.

And the “CD8A (205758_at) avg fold change vs control” value [2]?
The value was 1.3 fold.

What about the “CD14 (201743_at) avg fold change vs control” value [2] of the same molecule?
The value was 0.8 fold.

And the “CD74 (209619_at) avg fold change vs control” value [2]?
The value was 1.1 fold.

What about the “CLU (208791_at) avg fold change vs control” value [2] of the same molecule?
The value was 0.9 fold.

What about the “CMAH (210571_s_at) avg fold change vs control” value [2] of the same molecule?
The value was 1.0 fold.

And the “CTSC (201487_at) avg fold change vs control” value [2]?
The value was 1.1 fold.

And the “CTSK (202450_s_at) avg fold change vs control” value [2]?
The value was 1.3 fold.

And the “CTSS (202902_s_at) avg fold change vs control” value [2]?
The value was 1.0 fold.

And the “CX3CR1 (205898_at) avg fold change vs control” value [2]?
Its value is 1.0 fold.

What about the “CXCL9 (203915_at) avg fold change vs control” value [2] of the same molecule?
Its value is 1.6 fold.

What about the “CXCL10 (204533_at) avg fold change vs control” value [2] of the same molecule?
Its value is 1.1 fold.

And the “CXCL11 (210163_at) avg fold change vs control” value [2]?
Its value is 1.5 fold.

What about the “CXCL11 (211122_s_at) avg fold change vs control” value [2] of the same molecule?
The value was 1.0 fold.

And the “CXCL12 (209687_at) avg fold change vs control” value [2]?
The value was 1.0 fold.

And the “CYBA (203028_s_at) avg fold change vs control” value [2]?
Its value is 1.1 fold.

And the “CYBB (203923_s_at) avg fold change vs control” value [2]?
Its value is 0.9 fold.

And the “CYP1B1 (202436_s_at) avg fold change vs control” value [2]?
The value was 1.0 fold.

And the “CYP3A5 (214234_s_at) avg fold change vs control” value [2]?
The value was 0.9 fold.

What about the “CYP11B1 (214630_at) avg fold change vs control” value [2] of the same molecule?
Its value is 0.8 fold.

What about the “DUSP6 (208893_s_at) avg fold change vs control” value [2] of the same molecule?
The value was 1.0 fold.

And the “ECGF1 (204858_s_at) avg fold change vs control” value [2]?
Its value is 1.9 fold.

And the “ECM1 (209365_s_at) avg fold change vs control” value [2]?
Its value is 1.3 fold.

What about the “F2RL1 (206429_at) avg fold change vs control” value [2] of the same molecule?
The value was 2.0 fold.

And the “F13A1 (203305_at) avg fold change vs control” value [2]?
Its value is 0.9 fold.

What about the “FCGR1A (214511_x_at) avg fold change vs control” value [2] of the same molecule?
The value was 0.6 fold.

What about the “FCGR3A (204006_s_at) avg fold change vs control” value [2] of the same molecule?
The value was 0.8 fold.

What about the “G1P2 (205483_s_at) avg fold change vs control” value [2] of the same molecule?
Its value is 3.3 fold.

What about the “GZMB (210164_at) avg fold change vs control” value [2] of the same molecule?
Its value is 1.6 fold.

And the “HCA127 (220040_x_at) avg fold change vs control” value [2]?
Its value is 0.6 fold.

And the “HCK (208018_s_at) avg fold change vs control” value [2]?
Its value is 1.2 fold.

What about the “HFE (210864_x_at) avg fold change vs control” value [2] of the same molecule?
The value was 1.2 fold.

And the “HFE (211329_x_at) avg fold change vs control” value [2]?
The value was 0.9 fold.

What about the “HFE (211332_x_at) avg fold change vs control” value [2] of the same molecule?
Its value is 1.0 fold.

What about the “HFE (211863_x_at) avg fold change vs control” value [2] of the same molecule?
Its value is 0.8 fold.
